Assay results: PubChem BioAssay (NCI)
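All cell lines were grown in 96-well plates and treated with compound for 48 hours. GI50: concentration for 50% inhibition of growth. TGI: total growth inhibition.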

What was measured:
Assay in all cases: growth of human tumour cells (NCI), 48 h
NCI-H522 lung = tested on: NCI-H522 lung
TK-10 renal = tested on: TK-10 renal
SNB-19 CNS = tested on: SNB-19 CNS
HCC-2998 colon = tested on: HCC-2998 colon
HOP-62 NSCLC = tested on: HOP-62 NSCLC
U251 CNS = tested on: U251 CNS
PC-3 prostate = tested on: PC-3 prostate
IGROV1 ovarian = tested on: IGROV1 ovarian
MOLT-4 leukemia = tested on: MOLT-4 leukemia
UACC-62 melanoma = tested on: UACC-62 melanoma
SK-MEL-28 melanoma = tested on: SK-MEL-28 melanoma
NCI-H226 lung = tested on: NCI-H226 lung
SK-MEL-5 melanoma = tested on: SK-MEL-5 melanoma
SR leukemia = tested on: SR leukemia
DU-145 prostate = tested on: DU-145 prostate
NCI-H23 lung = tested on: NCI-H23 lung
HCT-116 colon = tested on: HCT-116 colon
M14 melanoma = tested on: M14 melanoma
LOX IMVI melanoma = tested on: LOX IMVI melanoma
CCRF-CEM leukemia = tested on: CCRF-CEM leukemia
MDA-MB-435 = tested on: MDA-MB-435
A498 renal = tested on: A498 renal
OVCAR-8 ovarian = tested on: OVCAR-8 ovarian
HT29 colon = tested on: HT29 colon
MDA-MB-231 breast = tested on: MDA-MB-231 breast
SN12C renal = tested on: SN12C renal
OVCAR-4 ovarian = tested on: OVCAR-4 ovarian
K-562 leukemia = tested on: K-562 leukemia
UACC-257 melanoma = tested on: UACC-257 melanoma
HCT-15 colon = tested on: HCT-15 colon
ACHN renal = tested on: ACHN renal
SF-539 CNS = tested on: SF-539 CNS
HOP-92 NSCLC = tested on: HOP-92 NSCLC
UO-31 renal = tested on: UO-31 renal
CAKI-1 renal = tested on: CAKI-1 renal
MCF7 breast = tested on: MCF7 breast
BT-549 breast = tested on: BT-549 breast
MALME-3M melanoma = tested on: MALME-3M melanoma
SK-OV-3 ovarian = tested on: SK-OV-3 ovarian
NCI-H460 lung = tested on: NCI-H460 lung
HL-60(TB) leukemia = tested on: HL-60(TB) leukemia
SK-MEL-2 melanoma = tested on: SK-MEL-2 melanoma
SW-620 colon = tested on: SW-620 colon
HS 578T breast = tested on: HS 578T breast
COLO 205 colon = tested on: COLO 205 colon
OVCAR-3 ovarian = tested on: OVCAR-3 ovarian
786-0 renal = tested on: 786-0 renal
OVCAR-5 ovarian = tested on: OVCAR-5 ovarian
T-47D breast = tested on: T-47D breast
EKVX NSCLC = tested on: EKVX NSCLC
SF-268 CNS = tested on: SF-268 CNS
NCI/ADR-RES ovarian = tested on: NCI/ADR-RES ovarian
A549 NSCLC = tested on: A549 NSCLC
SF-295 CNS = tested on: SF-295 CNS
RPMI-8226 leukemia = tested on: RPMI-8226 leukemia
KM12 colon = tested on: KM12 colon
SNB-75 CNS = tested on: SNB-75 CNS

## C[C@H](Nc1ncnc2ccc(-c3cnc(Cl)c(NS(C)(=O)=O)c3)cc12)c1ccccc1
NCI-H522 lung
  GI50: 2900 nM
  TGI: 19400 nM
TK-10 renal
  GI50: 1910 nM
  TGI: 21500 nM
SNB-19 CNS
  GI50: 1180 nM
  TGI: 9940 nM
HCC-2998 colon
  GI50: 924 nM
  TGI: 6860 nM
HOP-62 NSCLC
  GI50: 1300 nM
  TGI: 21000 nM
U251 CNS
  GI50: 1050 nM
  TGI: 30700 nM
PC-3 prostate
  GI50: 806 nM
  TGI: 37100 nM
IGROV1 ovarian
  GI50: 278 nM
  TGI: 1500 nM
MOLT-4 leukemia
  GI50: 4330 nM
  TGI: > 100000 nM
UACC-62 melanoma
  GI50: 379 nM
  TGI: 2160 nM
SK-MEL-28 melanoma
  GI50: 491 nM
  TGI: 6770 nM
NCI-H226 lung
  GI50: 943 nM
  TGI: 8410 nM
SK-MEL-5 melanoma
  GI50: 1040 nM
  TGI: 2210 nM
SR leukemia
  GI50: 2100 nM
  TGI: > 100000 nM
DU-145 prostate
  GI50: 2730 nM
  TGI: 28400 nM
NCI-H23 lung
  GI50: 1070 nM
  TGI: 5180 nM
HCT-116 colon
  GI50: 1680 nM
  TGI: 6120 nM
M14 melanoma
  GI50: 1570 nM
  TGI: 12600 nM
LOX IMVI melanoma
  GI50: 344 nM
  TGI: 1890 nM
CCRF-CEM leukemia
  GI50: 5460 nM
  TGI: > 100000 nM
MDA-MB-435
  GI50: 1270 nM
  TGI: 10700 nM
A498 renal
  GI50: 269 nM
  TGI: 2300 nM
OVCAR-8 ovarian
  GI50: 2270 nM
  TGI: 16000 nM
HT29 colon
  GI50: 2360 nM
  TGI: 19700 nM
MDA-MB-231 breast
  GI50: 1030 nM
  TGI: 2700 nM
SN12C renal
  GI50: 773 nM
  TGI: 27800 nM
OVCAR-4 ovarian
  GI50: 1580 nM
  TGI: 11700 nM
K-562 leukemia
  GI50: 7970 nM
  TGI: > 100000 nM
UACC-257 melanoma
  GI50: 1970 nM
  TGI: 13400 nM
HCT-15 colon
  GI50: 766 nM
  TGI: 11200 nM
ACHN renal
  GI50: 2180 nM
  TGI: > 100000 nM
SF-539 CNS
  GI50: 1130 nM
  TGI: 3870 nM
HOP-92 NSCLC
  GI50: 280 nM
  TGI: 4840 nM
UO-31 renal
  GI50: 284 nM
  TGI: 4850 nM
CAKI-1 renal
  GI50: 1110 nM
  TGI: 8210 nM
MCF7 breast
  GI50: 277 nM
  TGI: 10600 nM
BT-549 breast
  GI50: 272 nM
  TGI: 2050 nM
MALME-3M melanoma
  GI50: 242 nM
  TGI: 1880 nM
SK-OV-3 ovarian
  GI50: 1610 nM
  TGI: 7720 nM
NCI-H460 lung
  GI50: 1390 nM
  TGI: 13500 nM
HL-60(TB) leukemia
  GI50: 9470 nM
  TGI: > 100000 nM
SK-MEL-2 melanoma
  GI50: 1520 nM
  TGI: 3500 nM
SW-620 colon
  GI50: 2000 nM
  TGI: 11300 nM
HS 578T breast
  GI50: 199 nM
  TGI: 862 nM
COLO 205 colon
  GI50: 2290 nM
  TGI: 7610 nM
OVCAR-3 ovarian
  GI50: 627 nM
  TGI: 2940 nM
786-0 renal
  GI50: 1140 nM
  TGI: 7480 nM
OVCAR-5 ovarian
  GI50: 1370 nM
  TGI: 11400 nM
T-47D breast
  GI50: 175 nM
  TGI: 2410 nM
EKVX NSCLC
  GI50: 1200 nM
  TGI: 4360 nM
SF-268 CNS
  GI50: 1110 nM
  TGI: 10400 nM
NCI/ADR-RES ovarian
  GI50: 4760 nM
  TGI: 19700 nM
A549 NSCLC
  GI50: 3170 nM
  TGI: 15700 nM
SF-295 CNS
  GI50: 971 nM
  TGI: 4140 nM
RPMI-8226 leukemia
  GI50: 4290 nM
  TGI: > 100000 nM
KM12 colon
  GI50: 2300 nM
  TGI: 11800 nM
SNB-75 CNS
  GI50: 257 nM
  TGI: 4830 nM
